Experimental data reported in patent US5712417A, “Inhibitors of retroviral proteases” (Abbott Laboratories, priority 1989, dated 1998).
Counter-ions that a name gives are not always drawn. Where a SMILES comes first, the peptide text is derived from it. [ ]: non-standard residue; d: D form. The star is where a group is joined. Sta = CC(C)C[C@H](N)[C@@H](O)CC(=O)O; Isovaleryl = CC(C)CC(=O)*

Assays:
[1] = target: T1, HIV protease (Human immunodeficiency virus type 1 group M subtype B, UniProt P04585); assay: Inhibition of HIV protease (cleavage of H-Ser-Phe-Asn-Phe-Opr-Gln-Ile-OH, HPLC); format: biochemical; details: inhibitor concentration at which the cleavage rate is halved; pH 6, 2 hours; read-out: IC50
T1 construct: HIV protease consists of 99 amino acids and is evidently split off by itself from the pol polyprotein
Method in brief: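 Substrate H-Ser-Phe-Asn-Phe-Opr-Gln-Ile-OH in MGTE buffer (MES, glycerol, Triton X-100, PMSF, pH 6) preincubated with inhibitor at 37 °C for 5-10 min, then reacted with protease at 35 °C for 2 h. RP18 HPLC at 215 nm; tetrapeptide fraction gives cleavage rate, IC50 where rate is halved.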

[2] = system: HIV protease; details: literature (Katoh et al., Nature 1987); cited from earlier work
[3] = system: core protein p24; details: high doses; cited from earlier work
[4] = in many cases require discontinuation of the therapy; cited from earlier work
[5] = system: HIV; details: first strains of HIV; cited from earlier work

Row | Structure (SMILES) | IC50 [1] [nM] | other results
1 | CC(C)[C@H](N)C(=O)N[C@@H](Cc1ccccc1)[C@H](O)[C@@H](O)[C@H](Cc1ccccc1)NC(=O)[C@@H](N)C(C)C [Example 131, N,N'-bis-<L-Valyl>-2S,5S-diamino-1,6-diphenylhexane-3S,4S-diol dihydrochloride] | 40000 | –
2 | N[C@@H](CCCCNC(=O)OCc1ccccc1)C(=O)N[C@@H](Cc1ccccc1)[C@@H](O)[C@H](O)[C@H](Cc1ccccc1)NC(=O)[C@@H](N)CCCCNC(=O)OCc1ccccc1 [Example 132, N,N'-bis-<N^6 -Benzoxycarbonyl-L-lysyl>-2S,5S-diamino-1,6-diphenylhexane-3R,4R-diol dihydrochloride] | 20000 | –
3 | CC(C)[C@H](NC(=O)[C@@H](N)Cc1ccccc1)C(=O)NCCCCNC(=O)[C@@H](NC(=O)[C@@H](N)Cc1ccccc1)C(C)C [Example 145, N,N'-bis-<L-Phenylalanyl-L-valyl>-1.4-diaminobutane dihydrochloride] | 95 | –
4 | CC(C)[C@H](NC(=O)[C@H](Cc1cccc2ccccc12)CS(=O)(=O)C(C)(C)C)C(=O)NCCCCNC(=O)[C@@H](NC(=O)[C@H](Cc1cccc2ccccc12)CS(=O)(=O)C(C)(C)C)C(C)C [Example 146, N,N'-bis-<(2S-(1,1-Dimethylethylsulfonylmethyl)-3-(1-naphthyl)-propionyl)-L-valyl>-1,4-diaminobutane] | 100 | –
5 | CC(C)[C@H](NC(=O)[C@@H](N)Cc1ccccc1)C(=O)N[C@@H](CCc1ccccc1)[C@@H](O)[C@H](O)[C@H](CCc1ccccc1)NC(=O)[C@@H](NC(=O)[C@@H](N)Cc1ccccc1)C(C)C [Example 148, N,N'-bis-(L-Phenylalanyl-L-valyl)-3S,6S-diamino-1,8-diphenyloctane-4R,5R-diol dihydrochloride] | 36 | –
6 | CCCCC[C@H](NC(=O)[C@@H](NC(=O)[C@H](Cc1ccccc1)NC(=O)OC(C)(C)C)C(C)C)[C@@H](O)[C@H](O)[C@H](CCCCC)NC(=O)[C@@H](NC(=O)[C@H](Cc1ccccc1)NC(=O)OC(C)(C)C)C(C)C [Example 150, N,N'-bis-(tert.-Butoxycarbonyl-L-phenylalanyl-L-valyl)-6S,9S-diaminotetradecane-7R, 8R-diol] | 95 | –
7 | CCCCC[C@H](NC(=O)[C@@H](NC(=O)[C@@H](N)Cc1ccccc1)C(C)C)[C@@H](O)[C@H](O)[C@H](CCCCC)NC(=O)[C@@H](NC(=O)[C@@H](N)Cc1ccccc1)C(C)C [Example 151, N,N'-bis-(L-Phenylalanyl-L-valyl )-6S, 9S-diamino-tetradecane-7R, 8R-diol dihydrochloride] | 4 | –
8 | CC(C)[C@H](NC(=O)[C@@H](N)Cc1ccccc1)C(=O)N[C@@H](Cc1ccc2c(c1)OCO2)[C@@H](O)[C@H](O)[C@H](Cc1ccc2c(c1)OCO2)NC(=O)[C@@H](NC(=O)[C@@H](N)Cc1ccccc1)C(C)C [Example 154, N,N'-bis-(L-Phenylalanyl-L-valyl)-2S,5S-diamino-1,6-bis-(3,4-methylenedioxyphenyl)-hexane-3R,4R-diol dihydro-chloride] | 1 | –
9 | CC(C)[C@H](NC(=O)[C@H](Cc1cccc2ccccc12)CS(=O)(=O)C(C)(C)C)C(=O)N[C@@H](Cc1ccc2c(c1)OCO2)[C@@H](O)[C@H](O)[C@H](Cc1ccc2c(c1)OCO2)NC(=O)[C@@H](NC(=O)[C@H](Cc1cccc2ccccc12)CS(=O)(=O)C(C)(C)C)C(C)C [Example 155] | 10 | –
10 | CC[C@H](C)[C@H](NC(=O)[C@H](Cc1cccc2ccccc12)CS(=O)(=O)C(C)(C)C)C(=O)N[C@@H](Cc1ccccc1)[C@@H](O)[C@H](O)[C@H](Cc1ccccc1)NC(=O)[C@@H](NC(=O)[C@H](Cc1cccc2ccccc12)CS(=O)(=O)C(C)(C)C)[C@@H](C)CC [Example 156, N,N'-bis-(<2S-(1,1-Dimethylethylsulfonylmethyl)-3-(1-naphthyl)-propionyl>-L-isoleucyl)-2S,5S-diamino-1,6-diphenylhexane-3R,4R-diol] | 30 | –
11 | CC(C)CC(=O)N[C@H](C(=O)N[C@H](C(=O)N[C@@H](CC(C)C)[C@@H](O)CC(=O)N[C@@H](C)C(=O)N[C@@H](CC(C)C)[C@@H](O)CC(=O)O)C(C)C)C(C)C [Pepstatin A] (Isovaleryl-VV[Sta]A[Sta]-OH) | – | IC50 [2]: […]; reducing the formation of the core protein p24 [3]: capable of reducing the formation of the core protein p24
12 | Cc1cn([C@H]2C[C@H](N=[N+]=[N-])[C@@H](CO)O2)c(=O)[nH]c1=O [Zidovudine (AZT)] | – | toxic side effects [4]: serious toxic side effects; sensitivity of HIV strains toward AZT [5]: significantly lower sensitivity
